Where two headings read alike, the source gives them in different places.
Columns and labels:
[1] = test system: HCV genotype 1a (H77 strain) replicon in HUH-7 cells; test: HCV replicon luciferase reporter assay, genotype 1a; type: cell-based; conditions: Hepatitis C virus, Huh-7, 72 h, 3 days incubation, read-out: LE_1a (EC50, range)
In short: (§1)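 Replicon inhibition for both genotypes was measured as Renilla luciferase signal (EnduRen, 7.5 μM final, 2 h) after 3-day, 37° C exposure of replicon-bearing HUH-7 cells in 4% FCS DMEM, 0.5% DMSO. The 1b construct carries S1179I; the 1a H77 construct carries P1496L and S2204I. Twenty-point, 3-fold dilutions were fitted four-parametrically for EC50, and CC50 was taken from multiplexed Cell Titer-Blue.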

[2] = test system: HCV genotype 1b (Con1) replicon in HUH-7 cells; test: HCV replicon luciferase reporter assay, genotype 1b; type: cell-based; conditions: Hepatitis C virus, Huh-7, 72 h, 3 days incubation, read-out: LE_1b (EC50, range)
In short: as §1

[3] = HCV genotype 1a replicon luciferase assay, range class
[4] = HCV genotype 1b replicon luciferase assay, range class
[5] = HCV genotype 1a replicon luciferase
[6] = HCV genotype 1b replicon luciferase

| Compound | EC50 [1, 3] [nM] | EC50 [2, 4] [nM] | EC50 [1, 5] [nM] | EC50 [2, 6] [nM] | other results |
| --- | --- | --- | --- | --- | --- |
| COc1cc2cc(-c3ccc(OC(C)C)cc3)nc(O[C@@H]3C[C@H]4C(=O)N[C@]5(C(=O)NS(=O)(=O)C6CC6)C[C@H]5/C=C\CC[C@@H](C)C[C@@H](C)[C@H](NC(=O)OC(C)(C)C)C(=O)N4C3)c2cc1F [Compound 3182, tert-butyl ((2R,6S,7R,9R,13aS,14aR,16aS,Z)-14a-((cyclopropylsulfonyl)carbamoyl)-2-((7-fluoro-3-(4-isopropoxyphenyl)-6-methoxyisoquinolin-1-yl)oxy)-7,9-dimethyl-5,16-dioxo-1,2,3,5,6,7,8,9,10,11,13a,14,14a,15,16,16a-hexadecahydrocyclopropa[e]pyrrolo[1,2-a][1,4]diazacyclopentadecin-6-yl)carbamate] | < 5.46 | < 5.46 |  |  |  |
| COc1cnc(O[C@@H]2C[C@H]3C(=O)N[C@]4(C(=O)NS(=O)(=O)C5(CF)CC5)C[C@H]4/C=C\CC[C@@H](C)C[C@@H](C)[C@H](NC(=O)OC4(C5CC5)COC4)C(=O)N3C2)c2ccccc12 [Compound 1060, 3-cyclopropyloxetan-3-yl((2R,6S,7R,9R,13aS,14aR,16aS,Z)-14a-(((1-(fluoromethyl)cyclopropyl)sulfonyl)carbamoyl)-2-((4-methoxyisoquinolin-1-yl)oxy)-7,9-dimethyl-5,16-dioxo-1,2,3,5,6,7,8,9,10,11,13a,14,14a,15,16,16a-hexadecahydrocyclopropa[e]pyrrolo[1,2-a][1,4]diazacyclopentadecin-6-yl)carbamate] | < 5.46 | < 5.46 |  |  |  |
| COc1ccc2c(O[C@@H]3C[C@H]4C(=O)N[C@]5(C(=O)NS(=O)(=O)C6(C)CC6)C[C@H]5/C=C\CC[C@@H](C)C[C@@H](C)[C@H](NC(=O)OC(C)(C)C)C(=O)N4C3)nc(N3CCOCC3)cc2c1 [Compound 3089, tert-butyl ((2R,6S,7R,9R,13aS,14aR,16aS,Z)-2-((6-methoxy-3-morpholinoisoquinolin-1-yl)oxy)-7,9-dimethyl-14a-(((1-methylcyclopropyl)sulfonyl)carbamoyl)-5,16-dioxo-1,2,3,5,6,7,8,9,10,11,13a,14,14a,15,16,16a-hexadecahydrocyclopropa[e]pyrrolo[1,2-a][1,4]diazacyclopentadecin-6-yl)carbamate] | < 5.46 | < 5.46 |  |  |  |
| C[C@H]1CC/C=C\[C@@H]2C[C@@]2(C(=O)NS(=O)(=O)C2(C)CC2)NC(=O)[C@@H]2C[C@@H](Oc3nc(OCC(F)F)cc4c(Cl)cccc34)CN2C(=O)[C@@H](NC(=O)OC(C)(C)C(F)(F)F)[C@H](C)C1 [Compound 1097, 1,1,1-trifluoro-2-methylpropan-2-yl((2R,6S,7R,9S,13aS,14aR,16aS,Z)-2-((5-chloro-3-(2,2-difluoroethoxyl)isoquinolin-1-yl)oxy)-7,9-dimethyl-14a-(((1-methylcyclopropyl)sulfonyl)carbamoyl)-5,16-dioxo-1,2,3,5,6,7,8,9,10,11,13a,14,14a,15,16,16a-hexadecahydrocyclopropa[e]pyrrolo[1,2-a][1,4]diazacyclopentadecin-6-yl)carbamate] | 4.82 to 103 | < 5.46 |  |  |  |
| CCCOc1cnc(O[C@@H]2C[C@H]3C(=O)N[C@]4(C(=O)NS(=O)(=O)C5(C)CC5)C[C@H]4/C=C\CC[C@@H](C)C[C@@H](C)[C@H](NC(=O)O[C@H](C)C(F)(F)F)C(=O)N3C2)c2ccccc12 [Compound 5085, (R)-1,1,1-trifluoropropan-2-yl ((2R,6S,7R,9R,13aS,14aR,16aS,Z)-7,9-dimethyl-14a-(((1-methylcyclopropyl)sulfonyl)carbamoyl)-5,16-dioxo-2-((4-propoxyisoquinolin-1-yl)oxy)-1,2,3,5,6,7,8,9,10,11,13a,14,14a,15,16,16a-hexadecahydrocyclopropa[e]pyrrolo[1,2-a][1,4]diazacyclopentadecin-6-yl)carbamate] |  |  | 4.82 to 103 | 4.82 to 103 |  |
| CC[C@@H]1C[C@H](C)CC/C=C\[C@@H]2C[C@@]2(C(=O)NS(=O)(=O)C2CC2)NC(=O)[C@@H]2C[C@@H](Oc3ncnc4cc(OC)ccc34)CN2C(=O)[C@H]1NC(=O)OC(C)(C)C(F)(F)F [Compound 4189] |  |  |  |  | EC50 ([1]; GETYPE1A, HCV genotype 1a replicon luciferase): < 5.46 nM; EC50 ([2]; GETYPE1B, HCV genotype 1b replicon luciferase): < 5.46 nM |
| CC[C@@H]1C[C@H](C)CC/C=C\[C@@H]2C[C@@]2(C(=O)NS(=O)(=O)C2(C)CC2)NC(=O)[C@@H]2C[C@@H](Oc3nccc4cc(OC)c(F)cc34)CN2C(=O)[C@H]1NC(=O)OC(C)(C)C(C)(F)F [Compound 5435, 3,3-difluoro-2-methylbutan-2-yl((2R,6S,7R,9R,13aS,14aR,16aS,Z)-7-ethyl-2-((7-fluoro-6-methoxyisoquinolin-1-yl)oxy)-9-methyl-14a-(((1-methylcyclopropyl)sulfonyl)carbamoyl)-5,16-dioxo-1,2,3,5,6,7,8,9,10,11,13a,14,14a,15,16,16a-hexadecahydrocyclopropa[e]pyrrolo[1,2-a][1,4]diazacyclopentadecin-6-yl)carbamate] |  |  | 1.01 to 5 | 1.01 to 5 |  |
| COc1cnc(O[C@@H]2C[C@H]3C(=O)N[C@]4(C(=O)NS(=O)(=O)C5(F)CC5)C[C@H]4/C=C\CC[C@H](C)C[C@@H](C)[C@H](NC(=O)OC(C)(C)C(F)(F)F)C(=O)N3C2)c2ccccc12 [Compound 15, 1,1,1-trifluoro-2-methylpropan-2-yl((2R,6S,7R,9S,13aS,14aR,16aS,Z)-14a-(((1-fluorocyclopropyl)sulfonyl)carbamoyl)-2-((4-methoxyisoquinolin-1-yl)oxy)-7,9-dimethyl-5,16-dioxo-1,2,3,5,6,7,8,9,10,11,13a,14,14a,15,16,16a-hexadecahydrocyclopropa[e]pyrrolo[1,2-a][1,4]diazacyclopentadecin-6-yl)carbamate] | < 5.46 | < 5.46 |  |  |  |
| CCOc1nnc(O[C@@H]2C[C@H]3C(=O)N[C@]4(C(=O)NS(=O)(=O)C5(C)CC5)C[C@H]4/C=C\CC[C@H](C)C[C@@H](CC)[C@H](NC(=O)OC(C)(C)C(C)(F)F)C(=O)N3C2)c2ccccc12 [Compound 5050, 3,3-difluoro-2-methylbutan-2-yl((2R,6S,7R,9S,13aS,14aR,16aS,Z)-2-((4-ethoxyphthalazin-1-yl)oxy)-7-ethyl-9-methyl-14a-(((1-methylcyclopropyl)sulfonyl)carbamoyl)-5,16-dioxo-1,2,3,5,6,7,8,9,10,11,13a,14,14a,15,16,16a-hexadecahydrocyclopropa[e]pyrrolo[1,2-a][1,4]diazacyclopentadecin-6-yl)carbamate] |  |  | 4.82 to 103 | 4.82 to 103 |  |
| COc1cc(F)cc2c(O[C@@H]3C[C@H]4C(=O)N[C@]5(C(=O)NS(=O)(=O)C6(C)CC6)C[C@H]5/C=C\CC[C@H](C)C[C@@H](C)[C@H](NC(=O)OCC5(C)CC5)C(=O)N4C3)nccc12 [Compound 3161, (1-methylcyclopropyl)methyl ((2R,6S,7R,9S,13aS,14aR,16aS,Z)-2-((7-fluoro-5-methoxyisoquinolin-1-yl)oxy)-7,9-dimethyl-14a-(((1-methylcyclopropyl)sulfonyl)carbamoyl)-5,16-dioxo-1,2,3,5,6,7,8,9,10,11,13a,14,14a,15,16,16a-hexadecahydrocyclopropa[e]pyrrolo[1,2-a][1,4]diazacyclopentadecin-6-yl)carbamate] | 4.82 to 103 | < 5.46 |  |  |  |
| COc1ccc2c(O[C@@H]3C[C@H]4C(=O)N[C@]5(C(=O)NS(=O)(=O)C6(C)CC6)C[C@H]5/C=C\CC[C@@H](C)C[C@@H](C)[C@H](NC(=O)c5ccn(C)c(=O)c5)C(=O)N4C3)ncc(OC)c2c1 [Compound 4143, (2R,6S,7R,9R,13aS,14aR,16aS,Z)-2-(4,6-dimethoxyisoquinolin-1-yloxy)-7,9-dimethyl-6-(1-methyl-2-oxo-1,2-dihydropyridine-4-carboxamido)-N-(1-methylcyclopropylsulfonyl)-5,16-dioxo-1,2,3,5,6,7,8,9,10,11,13a,14,14a,15,16,16a-hexadecahydrocyclopropa[e]pyrrolo[1,2-a][1,4]diazacyclopentadecine-14a-carboxamide] |  |  | 4.82 to 103 | 4.82 to 103 |  |
| COc1ccc2c(O[C@@H]3C[C@H]4C(=O)N[C@]5(C(=O)NS(=O)(=O)C6CC6)C[C@H]5/C=C\CC[C@H](C)C[C@@H](C)[C@H](NC(=O)OC(C)(C)C(F)(F)F)C(=O)N4C3)nccc2c1F [Compound 3149, 1,1,1-trifluoro-2-methylpropan-2-yl((2R,6S,7R,9S,13aS,14aR,16aS,Z)-14a-((cyclopropylsulfonyl)carbamoyl)-2-((5-fluoro-6-methoxyisoquinolin-1-yl)oxy)-7,9-dimethyl-5,16-dioxo-1,2,3,5,6,7,8,9,10,11,13a,14,14a,15,16,16a-hexadecahydrocyclopropa[e]pyrrolo[1,2-a][1,4]diazacyclopentadecin-6-yl)carbamate] | 4.82 to 103 | < 5.46 |  |  |  |
| C[C@H]1CC/C=C\[C@@H]2C[C@@]2(C(=O)NS(=O)(=O)C2CC2)NC(=O)[C@@H]2C[C@@H](Oc3nccc4c5c(ccc34)OC(F)(F)O5)CN2C(=O)[C@@H](NC(=O)OCC2(C)CC2)[C@H](C)C1 [Compound 5271, (1-methylcyclopropyl)methyl ((2R,6S,7R,9S,13aS,14aR,16aS,Z)-14a-((cyclopropylsulfonyl)carbamoyl)-2-((2,2-difluoro-[1,3]dioxolo[4,5-f]isoquinolin-6-yl)oxy)-7,9-dimethyl-5,16-dioxo-1,2,3,5,6,7,8,9,10,11,13a,14,14a,15,16,16a-hexadecahydrocyclopropa[e]pyrrolo[1,2-a][1,4]diazacyclopentadecin-6-yl)carbamate] |  |  | 4.82 to 103 | 4.82 to 103 |  |
